ChEMBL document CHEMBL3885861, “Open TG-GATES”
“And” between values parts separate entries of the source, which are not always exact repeats. Equal entries are not always repeated.

Organism: Rattus norvegicus
Assay: Open TG-GATES - Regimen: Single
Assay type: toxicity, organism-based, Sprague-Dawley
Set-up: regimen Single, gender Male, age 6 weeks
Details: in vivo, po, route gavage; for LIVER: tissue Liver; for A/G / ALP / ALT / AST / BUN / CRE / Ca / Cl / GLC / IP / K / LDH / Na / PL / RALB / TBIL / TC / TG / TP / gamma-GTP / DBIL: tissue Plasma; for APTT / Bas / Eos / Fbg / Hb / Ht / Lym / MCH / MCHC / MCV / Mono / Neu / PT / Plat / RBC / Ret / WBC: tissue Blood; for KIDNEY_L / KIDNEY_R / KIDNEY_TOTAL: tissue Kidney
[1] = 0 mg/kg, 24 h, dose level Control

SMILES: COc1ccc2c(c1)c(CC(=O)O)c(C)n2C(=O)c1ccc(Cl)cc1 [INDOMETHACIN]
- LIVER [1]: 10.4 g and 11.1 g
- A/G [1]: 2.1 and 1.6
- ALP [1]: 1109.6 IU/L and 886.6 IU/L
- ALT [1]: 39.6 IU/L and 36.4 IU/L
- AST [1]: 68 IU/L and 72.6 IU/L
- BUN [1]: 18 mg/dL and 13.8 mg/dL
- CRE [1]: 0.5 mg/dL and 0.4 mg/dL
- Ca [1]: 10.5 mg/dL and 10.7 mg/dL
- Cl [1]: 105 meq/L and 102.8 meq/L
- GLC [1]: 185.4 mg/dL and 187.8 mg/dL
- IP [1]: 8.8 mg/dL and 7.4 mg/dL
- K [1]: 5.7 meq/L and 4.3 meq/L
- LDH [1]: 106 IU/L and 240.2 IU/L
- Na [1]: 138.8 meq/L and 140.6 meq/L
- PL [1]: 153.2 mg/dL and 145.8 mg/dL
- RALB [1]: 4 g/dL and 3.4 g/dL
- TBIL [1]: 0.2 mg/dL and 0.1 mg/dL
- TC [1]: 83.2 mg/dL and 72.2 mg/dL
- TG [1]: 84 mg/dL and 116 mg/dL
- TP [1]: 5.9 g/dL and 5.5 g/dL
- gamma-GTP [1]: 1.2 IU/L and 1.4 IU/L
- TERMINAL_BW (1 mg/kg, 3 h, dose level Low): 199.2 g
- APTT (1 mg/kg, 3 h, dose level Low): 17.2 s
- Bas (1 mg/kg, 3 h, dose level Low): 0%
- Eos (1 mg/kg, 3 h, dose level Low): 0.6%
- Fbg (1 mg/kg, 3 h, dose level Low): 222.4 mg/dL
- Hb (1 mg/kg, 3 h, dose level Low): 13.3 g/dL
- Ht (1 mg/kg, 3 h, dose level Low): 40%
- Lym (1 mg/kg, 3 h, dose level Low): 81.2%
- MCH (1 mg/kg, 3 h, dose level Low): 21.8 pg
- MCHC (1 mg/kg, 3 h, dose level Low): 33.1%
- MCV (1 mg/kg, 3 h, dose level Low): 65.7 fL
- Mono (1 mg/kg, 3 h, dose level Low): 8.6%
- Neu (1 mg/kg, 3 h, dose level Low): 9.8%
- PT (1 mg/kg, 3 h, dose level Low): 12.4 s
- Plat (1 mg/kg, 3 h, dose level Low): 99.5 x10_4/uL
- RBC (1 mg/kg, 3 h, dose level Low): 610 x10_4/ul
- Ret (1 mg/kg, 3 h, dose level Low): 9.6%
- WBC (1 mg/kg, 3 h, dose level Low): 95.5 x10_2/uL
- KIDNEY_L (1 mg/kg, 3 h, dose level Low): 0.9 g
- KIDNEY_R (1 mg/kg, 3 h, dose level Low): 0.9 g
- KIDNEY_TOTAL (1 mg/kg, 3 h, dose level Low): 1.8 g
- LIVER (1 mg/kg, 3 h, dose level Low): 9.5 g
- A/G (1 mg/kg, 3 h, dose level Low): 1.7
- ALP (1 mg/kg, 3 h, dose level Low): 1062.4 IU/L
- ALT (1 mg/kg, 3 h, dose level Low): 37.4 IU/L
- AST (1 mg/kg, 3 h, dose level Low): 68.6 IU/L
- BUN (1 mg/kg, 3 h, dose level Low): 11.8 mg/dL
- CRE (1 mg/kg, 3 h, dose level Low): 0.5 mg/dL
- Ca (1 mg/kg, 3 h, dose level Low): 10.5 mg/dL
- Cl (1 mg/kg, 3 h, dose level Low): 105.6 meq/L
- DBIL (1 mg/kg, 3 h, dose level Low): 0.018 mg/dL
- GLC (1 mg/kg, 3 h, dose level Low): 187.8 mg/dL
- IP (1 mg/kg, 3 h, dose level Low): 9 mg/dL
- K (1 mg/kg, 3 h, dose level Low): 4.8 meq/L
- LDH (1 mg/kg, 3 h, dose level Low): 100 IU/L
- Na (1 mg/kg, 3 h, dose level Low): 137.4 meq/L
- PL (1 mg/kg, 3 h, dose level Low): 130.4 mg/dL
- RALB (1 mg/kg, 3 h, dose level Low): 3.8 g/dL
- TBIL (1 mg/kg, 3 h, dose level Low): 0.3 mg/dL
- TC (1 mg/kg, 3 h, dose level Low): 75.6 mg/dL
- TG (1 mg/kg, 3 h, dose level Low): 41.8 mg/dL
- TP (1 mg/kg, 3 h, dose level Low): 6.1 g/dL
- gamma-GTP (1 mg/kg, 3 h, dose level Low): 1.6 IU/L
- TERMINAL_BW (1 mg/kg, 6 h, dose level Low): 195.5 g
- APTT (1 mg/kg, 6 h, dose level Low): 16.7 s
- Bas (1 mg/kg, 6 h, dose level Low): 0%
- Eos (1 mg/kg, 6 h, dose level Low): 0.6%
- Fbg (1 mg/kg, 6 h, dose level Low): 210.6 mg/dL
- Hb (1 mg/kg, 6 h, dose level Low): 13.6 g/dL
- Ht (1 mg/kg, 6 h, dose level Low): 41.1%
- Lym (1 mg/kg, 6 h, dose level Low): 78.8%
- MCH (1 mg/kg, 6 h, dose level Low): 21.8 pg
- MCHC (1 mg/kg, 6 h, dose level Low): 33.1%
- MCV (1 mg/kg, 6 h, dose level Low): 66 fL
- Mono (1 mg/kg, 6 h, dose level Low): 9%
- Neu (1 mg/kg, 6 h, dose level Low): 11.6%
- PT (1 mg/kg, 6 h, dose level Low): 12.5 s
- Plat (1 mg/kg, 6 h, dose level Low): 104.4 x10_4/uL
- RBC (1 mg/kg, 6 h, dose level Low): 623.2 x10_4/ul
- Ret (1 mg/kg, 6 h, dose level Low): 9.4%
- WBC (1 mg/kg, 6 h, dose level Low): 102.9 x10_2/uL
- KIDNEY_L (1 mg/kg, 6 h, dose level Low): 1 g
- KIDNEY_R (1 mg/kg, 6 h, dose level Low): 0.9 g
- KIDNEY_TOTAL (1 mg/kg, 6 h, dose level Low): 1.9 g
- LIVER (1 mg/kg, 6 h, dose level Low): 8.8 g
- A/G (1 mg/kg, 6 h, dose level Low): 1.7
- ALP (1 mg/kg, 6 h, dose level Low): 1218.4 IU/L
- ALT (1 mg/kg, 6 h, dose level Low): 35.8 IU/L
- AST (1 mg/kg, 6 h, dose level Low): 70.6 IU/L
- BUN (1 mg/kg, 6 h, dose level Low): 11 mg/dL
- CRE (1 mg/kg, 6 h, dose level Low): 0.5 mg/dL
- Ca (1 mg/kg, 6 h, dose level Low): 10.2 mg/dL
- Cl (1 mg/kg, 6 h, dose level Low): 105.6 meq/L
- DBIL (1 mg/kg, 6 h, dose level Low): 0.02 mg/dL
- GLC (1 mg/kg, 6 h, dose level Low): 191.4 mg/dL
- IP (1 mg/kg, 6 h, dose level Low): 9.4 mg/dL
- K (1 mg/kg, 6 h, dose level Low): 5.1 meq/L
- LDH (1 mg/kg, 6 h, dose level Low): 83.6 IU/L
- Na (1 mg/kg, 6 h, dose level Low): 136.8 meq/L
- PL (1 mg/kg, 6 h, dose level Low): 126.4 mg/dL
- RALB (1 mg/kg, 6 h, dose level Low): 3.8 g/dL
- TBIL (1 mg/kg, 6 h, dose level Low): 0.3 mg/dL
- TC (1 mg/kg, 6 h, dose level Low): 75.8 mg/dL
- TG (1 mg/kg, 6 h, dose level Low): 53.2 mg/dL
- TP (1 mg/kg, 6 h, dose level Low): 6 g/dL
- gamma-GTP (1 mg/kg, 6 h, dose level Low): 1.4 IU/L
- TERMINAL_BW (1 mg/kg, 9 h, dose level Low): 198.6 g
- APTT (1 mg/kg, 9 h, dose level Low): 16.5 s
- Bas (1 mg/kg, 9 h, dose level Low): 0%
- Eos (1 mg/kg, 9 h, dose level Low): 0.8%
- Fbg (1 mg/kg, 9 h, dose level Low): 213 mg/dL
- Hb (1 mg/kg, 9 h, dose level Low): 13.1 g/dL
- Ht (1 mg/kg, 9 h, dose level Low): 39.4%
- Lym (1 mg/kg, 9 h, dose level Low): 83.6%
- MCH (1 mg/kg, 9 h, dose level Low): 21.8 pg
- MCHC (1 mg/kg, 9 h, dose level Low): 33.3%
- MCV (1 mg/kg, 9 h, dose level Low): 65.5 fL
- Mono (1 mg/kg, 9 h, dose level Low): 6.6%
- Neu (1 mg/kg, 9 h, dose level Low): 9.2%
- PT (1 mg/kg, 9 h, dose level Low): 12.6 s
- Plat (1 mg/kg, 9 h, dose level Low): 102.1 x10_4/uL
- RBC (1 mg/kg, 9 h, dose level Low): 602 x10_4/ul
- Ret (1 mg/kg, 9 h, dose level Low): 10.2%
- WBC (1 mg/kg, 9 h, dose level Low): 141 x10_2/uL
- KIDNEY_L (1 mg/kg, 9 h, dose level Low): 0.9 g
- KIDNEY_R (1 mg/kg, 9 h, dose level Low): 1 g
- KIDNEY_TOTAL (1 mg/kg, 9 h, dose level Low): 1.9 g
- LIVER (1 mg/kg, 9 h, dose level Low): 8 g
- A/G (1 mg/kg, 9 h, dose level Low): 2.6
- ALP (1 mg/kg, 9 h, dose level Low): 915 IU/L
- ALT (1 mg/kg, 9 h, dose level Low): 35.6 IU/L
- AST (1 mg/kg, 9 h, dose level Low): 68.2 IU/L
- BUN (1 mg/kg, 9 h, dose level Low): 10.6 mg/dL
- CRE (1 mg/kg, 9 h, dose level Low): 0.5 mg/dL
- Ca (1 mg/kg, 9 h, dose level Low): 10 mg/dL
- Cl (1 mg/kg, 9 h, dose level Low): 106.8 meq/L
- DBIL (1 mg/kg, 9 h, dose level Low): 0.072 mg/dL
- GLC (1 mg/kg, 9 h, dose level Low): 187.4 mg/dL
- IP (1 mg/kg, 9 h, dose level Low): 10 mg/dL
- K (1 mg/kg, 9 h, dose level Low): 5.1 meq/L
- LDH (1 mg/kg, 9 h, dose level Low): 92.8 IU/L
- Na (1 mg/kg, 9 h, dose level Low): 137.4 meq/L
- PL (1 mg/kg, 9 h, dose level Low): 141.6 mg/dL
- RALB (1 mg/kg, 9 h, dose level Low): 3.8 g/dL
- TBIL (1 mg/kg, 9 h, dose level Low): 0.5 mg/dL
- TC (1 mg/kg, 9 h, dose level Low): 85.8 mg/dL
- TG (1 mg/kg, 9 h, dose level Low): 45.2 mg/dL
